According to patent publication US10730884B2, “Substituted indole compound derivatives as dengue viral replication inhibitors” (Janssen Pharmaceuticals, Inc., priority 2016, dated 2020):
pEC50: −log10 of the molar value. Where two headings read alike, the source gives them in different places.

Tests used:
DENV-2 strain 16681 = assay: Tetravalent RT-qPCR assay, serotype 2; type: cell-based, Dengue virus; conditions: for pEC50: Dengue virus, DENV2, Vero, 72 h, RT-qPCR serotype 2 16681, Protocol A, Vero cells, day 3; for SI: RT-qPCR serotype 2 16681
Method: (§1) The antiviral activity of the compounds of the invention was tested against DENV-1 strain TC974#666 (NCPV), DENV-2 strain 16681, DENV-3 strain H87 (NCPV) and DENV-4 strain H241 (NCPV) in a RT-qPCR assay. Therefore, Vero cells were infected with either DENV-1, or -2, or -3, or -4 in the presence or absence of test compounds. At day 3 post-infection, the cells were lysed and cell lysates were used to prepare cDNA of both a viral target (the 3′UTR of DENV; Table 2) and a cellular reference gene (β-actin, Table 2). Subsequently, a duplex real time PCR was performed on a Lightcycler480 instrument. The generated Cp value is inversely proportional to the amount of RNA expression of these targets. Inhibition of DENV replication by a test compound result in a shift of Cp's for the 3′UTR gene. On the other hand, if a test compound is toxic to the cells, a similar effect on β-actin expression will be observed. The comparative ΔΔCp method is used to calculate EC50, which is based on the relative gene expression of the target gene (3′UTR) normalized with the cellular housekeeping gene (β-actin). In addition, CC50 values are determined based on the Cp values acquired for the housekeeping gene β-actin.
(§2) The culture medium consisted of minimal essential medium supplemented with 2% of heat-inactivated fetal calf serum, 0.04% gentamycin (50 mg/mL) and 2 mM of L-glutamine. Vero cells, obtained from ECACC, were suspended in culture medium and 75 μL/well was added in 96-well plates (10000 cells/well), which already contain the antiviral compounds. […] In addition, each plate contains wells which are assigned as virus controls (containing cells and virus in the absence of compound) and cell controls (containing cells in the absence of virus and compound). Once the cells were added in the plates, the plates were incubated in a fully humidified incubator (37° C., 5% CO2) until the next day. Dengue viruses serotype-1, 2, 3 and 4 were diluted in order to obtain a Cp of ˜22-24 in the assay. Therefore, 25 μL of virus suspension was added to all the wells containing test compound and to the wells assigned as virus control. In parallel, 25 μL of culture medium was added to the cell controls. Next, the plates were incubated for 3 days in a fully humidified incubator (37° C., 5% CO2). After 3 days, the supernatant was removed from the wells and the cells were washed twice with ice-cold PBS (˜100 μL). The cell pellets within the 96-well plates were stored at −80° C. for at least 1 day. Next, RNA was extracted using the Cells-to-CT™ lysis kit, according to the manufacturer's guideline (Life Technologies). The cell lysates can be stored at −80° C. or immediately used in the reverse transcription step.
(§3) In preparation of the reverse transcription step, mix A (table 3A) was prepared and 7.57 μL/well was dispensed in a 96-well plate. After addition of 5 μL of the cell lysates, a five minute denaturation step at 75° C. was performed (table 3B). Afterwards, 7.43 μL of mix B was added (table 3C) and the reverse transcription step was initiated (table 3D) to generate cDNA.
(§4) Finally, a RT-qPCR mix was prepared, mix C (table 4A), and 22.02 μL/well was dispensed in 96-well LightCycler qPCR plates to which 3 μL of cDNA was added and the qPCR was performed according to the conditions in table 4B on a LightCycler 480.
(§5) Using the LightCycler software and an in-house LIMS system, dose response curves for each compound were calculated and the half maximal effective concentration (EC50) and the half maximal cytotoxic concentration (CC50) were determined (Tables 5-8).

in vitro [1] = conditions: African green monkey
DENV-1 strain TC974#666 = assay: Tetravalent RT-qPCR assay, serotype 1; type: cell-based, Dengue virus; conditions: for pEC50: Dengue virus, DENV1, Vero, 72 h, RT-qPCR serotype 1 TC974#666, Protocol A, Vero cells, day 3; for SI: RT-qPCR serotype 1 TC974#666
Method: as §1, §2, §3, §4, §5

DENV-3 strain H87 = assay: Tetravalent RT-qPCR assay, serotype 3; type: cell-based, Dengue virus; conditions: for pEC50: Dengue virus, DENV3, Vero, 72 h, RT-qPCR serotype 3 H87, Protocol A, Vero cells, day 3; for SI: RT-qPCR serotype 3 H87
Method: as §1, §2, §3, §4, §5

in vitro [2] = type: cell-based; conditions: African green monkey, CC50
Method: as §1, §2, §5

DENV-2 16681 strain = assay: DENV-2 antiviral assay (eGFP-labeled virus, Vero cells); type: cell-based, Dengue virus; conditions: for pEC50: DENV-2 16681 eGFP, Vero cells, MOI 0.5, 3 days; for SI: SI=CC50/EC50, DENV-2 antiviral assay
Method: The antiviral activity of all the compounds of the invention was tested against the DENV-2 16681 strain which was labeled with enhanced green fluorescent protein (eGPF). The culture medium consists of minimal essential medium supplemented with 2% of heat-inactivated fetal calf serum, 0.04% gentamycin (50 mg/mL) and 2 mM of L-glutamine. Vero cells, obtained from ECACC, were suspended in culture medium and 25 μL was added to 384-well plates (2500 cells/well), which already contain the antiviral compounds. Typically, these plates contain a 5-fold serial dilution of 9 dilution steps of the test compound at 200 times the final concentration in 100% DMSO (200 nL). […] Finally, each plate contains wells which are assigned as virus controls (containing cells and virus in the absence of compound), cell controls (containing cells in the absence of virus and compound) and medium controls (containing medium in the absence of cells, virus and compounds). To the wells assigned as medium control, 25 μL of culture medium was added instead of Vero cells. Once the cells were added to the plates, the plates were incubated for 30 minutes at room temperature to allow the cells to distribute evenly within the wells. Next, the plates were incubated in a fully humidified incubator (37° C., 5% CO2) until the next day. Then, DENV-2 strain 16681, labeled with eGFP, was added at a multiplicity of infection (MOI) of 0.5. Therefore, 15 μL of virus suspension was added to all the wells containing test compound and to the wells assigned as virus control. In parallel, 15 μL of culture medium was added to the medium and cell controls. Next, the plates were incubated for 3 days in a fully humidified incubator (37° C., 5% CO2). At the day of the read out, the eGFP fluorescence was measured using an automated fluorescence microscope at 488 nm (blue laser). Using an in-house LIMS system, inhibition dose response curves for each compound were calculated and the half maximal effective concentration (EC50) was determined. Therefore, the percent inhibition (I) for every test concentration is calculated using the following formula: I=100*([…])/(SVC−SCC); ST, SCC and SVC are the amount of eGFP signal in the test compound, cell control and virus control wells, respectively. The EC50 represents the concentration of a compound at which the virus replication is inhibited with 50%, as measured by a 50% reduction of the eGFP fluorescent intensity compared to the virus control. The EC50 is calculated using linear interpolation (Table 1).

DENV-4 strain H241 = assay: Tetravalent RT-qPCR assay, serotype 4; type: cell-based, Dengue virus; conditions: for pEC50: Dengue virus, DENV4, Vero, 72 h, RT-qPCR serotype 4 H241, Protocol A, Vero cells, day 3; for SI: RT-qPCR serotype 4 H241
Method: as §1, §2, §3, §4, §5

Vero cells = conditions: African green monkey

SMILES	pEC50 (DENV-2 strain 16681)	SI (DENV-2 strain 16681)	CC50 (in vitro [1])	pEC50 (DENV-1 strain TC974#666)	SI (DENV-1 strain TC974#666)	pEC50 (DENV-3 strain H87)	SI (DENV-3 strain H87)	CC50 at 3 days (in vitro [2])	pEC50 (DENV-2 16681 strain)	SI (DENV-2 16681 strain)	pEC50 (DENV-4 strain H241)	SI (DENV-4 strain H241)	CC50 (Vero cells)	pEC50 (DENV-1 strain TC974#666; read-out: EC50)	pEC50 (DENV-3 strain H87; read-out: EC50)
[2H]C(Nc1cc(OC)cc(OCCO)c1)(C(=O)c1c[nH]c2cc(OC)c(C)cc12)c1ccc(Cl)cc1OC (single isomer, unassigned) [Compound 14A-D]	9.54	>11900	3600 nM	8.52	1070	8.01	>261	> 2300 nM	9.59	17600	7.13	>46	–	–	–
COc1cc(NC(C(=O)c2c[nH]c3c4c(ccc23)OCC4)c2ccc(Cl)cc2OC)cc(OCCO)c1 (single isomer, unassigned) [Compound 11B]	–	–	–	–	–	–	–	–	6.77	49	–	–	8200 nM	–	–
COc1cc(NC(C(=O)c2c[nH]c3cc4c(cc23)CCO4)c2ccc(F)cc2OC)cc(OCCO)c1 (single isomer, unassigned) [Compound 7B]	–	–	–	–	–	–	–	–	6.20	19	–	–	12000 nM	–	–
COc1cc(NC(C(=O)c2c[nH]c3cc(F)c(C)cc23)c2ccc(Cl)cc2OC)cc(OCCO)c1 (single isomer, unassigned) [Compound 9B]	9.16	5540	–	–	1700	–	234	3000 nM	9.36	7480	7.04	28	–	8.85	7.80
COc1cc(NC(C(=O)c2c[nH]c3cc(F)c(C)cc23)c2ccc(F)cc2OC)cc(OCCO)c1 (single isomer, unassigned) [Compound 3A]	8.80	1610	–	–	748	–	42	–	8.96	3230	6.68	11	3800 nM	8.40	7.66
[2H]C(Nc1cc(OC)cc(OCCO)c1)(C(=O)c1c[nH]c2cc(F)ccc12)c1ccc(Cl)cc1OC (single isomer, unassigned) [Compound 13B-D]	–	–	–	–	–	–	–	–	6.77	54	–	–	9600 nM	–	–
[2H]C(Nc1cc(OC)cc(OCCO)c1)(C(=O)c1c[nH]c2cc(OC)c(C)cc12)c1ccc(Cl)cc1OC (single isomer, unassigned) [Compound 14B-D]	–	–	–	–	–	–	–	–	6.96	52	–	–	6000 nM	–	–
COc1cc(NC(C(=O)c2c[nH]c3c(C)cc(Cl)cc23)c2ccc(F)cc2OC)cc(OCCO)c1 (single isomer, unassigned) [Compound 1B]	–	–	–	–	–	–	–	–	7.14	148	–	–	11000 nM	–	–
COc1cc(NC(C(=O)c2c[nH]c3cc(OC)c(Cl)cc23)c2ccc(F)cc2OC)cc(OCCO)c1 (single isomer, unassigned) [Compound 2B]	–	–	–	–	–	–	–	–	6.89	85	–	–	11000 nM	–	–
COc1cc(NC(C(=O)c2c[nH]c3ccc(S(F)(F)(F)(F)F)cc23)c2ccc(Cl)cc2OC)cc(OCCO)c1 (single isomer, unassigned) [Compound 15A]	9.96	21200	–	–	16100	–	361	–	9.77	16000	7.85	84	2700 nM	9.89	8.36
COc1cc(NC(C(=O)c2c[nH]c3ccc(C)cc23)c2ccc(F)cc2OC)cc(OCCO)c1 (single isomer, unassigned) [Compound 5B]	–	–	–	–	–	–	–	–	6.09	14	–	–	11000 nM	–	–
COc1cc(NC(C(=O)c2c[nH]c3cc4c(cc23)CCO4)c2ccc(Cl)cc2OC)cc(OCCO)c1 (single isomer, unassigned) [Compound 10B]	9.40	23600	–	–	3340	–	316	–	9.49	19700	6.96	>29	9500 nM	8.49	7.66
COc1cc(NC(C(=O)c2c[nH]c3ccc(S(F)(F)(F)(F)F)cc23)c2ccc(Cl)cc2OC)cc(OCCO)c1 (single isomer, unassigned) [Compound 15B]	–	–	–	–	–	–	–	–	7.89	460	–	–	5800 nM	–	–
COc1cc(NC(C(=O)c2c[nH]c3cc(F)ccc23)c2ccc(Cl)cc2OC)cc(OCCOP(=O)(O)O)c1 (single isomer, unassigned) [Compound 13B-P]	–	–	–	–	–	–	–	–	7.89	822	–	–	11000 nM	–	–
COc1cc(NC(C(=O)c2c[nH]c3ccc(C)cc23)c2ccc(F)cc2OC)cc(OCCO)c1 (single isomer, unassigned) [Compound 5A]	8.57	4290	5800 nM	–	1430	–	207	10000 nM	8.60	2910	6.57	21	–	8.15	7.30
